Source: article PMC2784635 (Bioorganic & medicinal chemistry, 2008)

Experiments:
[1] = biological target: cytochrome bc1 complex (beef heart mitochondria, NADH oxidase) (Bos taurus, UniProt P00157+P13272); experiment: beef heart mitochondrial NADH oxidase assay; assay type: biochemical; settings: for IC50, NADH oxidase: beef heart mitochondria, Z-enamide analogues, Table 5
[2] = system: plant pathogens; experiment: fungicidal activity on plants; assay type: in vivo
[3] = simulated sunlight photostability test, thin films on glass slides; assay type: physicochemical; settings: for time for 50% of parent compound being lost / T50 glass slides: thin films on glass slides
[4] = system: several fungi; settings: cited from earlier work
[5] = system: electron transport chain at complex III; settings: beef heart mitochondrial respiration assay; cited from earlier work
[6] = system: Plasmopara viticola (vine downy mildew); experiment: glasshouse foliar spray test, vine downy mildew; assay type: in vivo

C/C=C(C)/C=C/C=C/[C@H](OC)[C@@H](C)[C@@H](OC)[C@@H](C)CCc1oc2c(O)c(OC)cc(OC)c2c(=O)c1C [Compound 2, stigmatellin, reference compound]
activity in the NADH oxidase / beef heart mitochondrial respiration assay [1]: quite active
fungicidal activity on plants [2]: very little fungicidal activity

COC(=O)CNC(=O)/C=C\C/C=C\NC(=O)/C=C(C)/C=C/[C@H](C)[C@H](OC)[C@H](C)[C@H](/C=C/c1ccccc1)OC [Compound 8, crocacin A]
time for 50% of parent compound being lost [3]: 7 min
inhibition of growth of fungi in vitro [4]: inhibited the growth of several fungi in vitro
inhibition of the electron transport chain at complex III [5]: inhibited the electron transport chain at complex III

CO[C@H]([C@H](C)[C@H](/C=C/c1ccccc1)OC)[C@@H](C)/C=C/C(C)=C/C(=O)N/C=C\C/C=C\C(=O)NCC(=O)O [Compound 9, crocacin B]
inhibition of the electron transport chain at complex III [5]: not to be active

CO[C@H]([C@H](C)[C@H](/C=C/c1ccccc1)OC)[C@@H](C)/C=C/C(C)=C/C(N)=O [Compound 10, crocacin C]
inhibition of the electron transport chain at complex III [5]: not to be active

COC(=O)CNC(=O)CCC/C=C\NC(=O)/C=C(C)/C=C/[C@H](C)[C@H](OC)[C@H](C)[C@H](/C=C/c1ccccc1)OC [Compound 11, crocacin D, reference compound]
T50 glass slides [3]: 0.6 h
time for 50% of parent compound being lost [3]: 37 min
activity in the NADH oxidase / beef heart mitochondrial respiration assay [1]: slightly more active than crocacin A
inhibition of growth of fungi in vitro [4]: inhibited the growth of several fungi in vitro
inhibition of the electron transport chain at complex III [5]: inhibited the electron transport chain at complex III

CCCCCCCCCCCCC(=O)N/C=C\CCCC(=O)NCC(=O)OC [Compound 12]
photostability [3]: photostability was unexpectedly reduced
T50 glass slides [3]: 0.1 h
activity in the NADH oxidase / beef heart mitochondrial respiration assay [1]: very active
fungicidal activity on plants [2]: no fungicidal activity

CCCCCCOc1ccc(C(=O)N/C=C\CCCC(=O)NCC(=O)OC)cc1 [Compound 13]
T50 glass slides [3]: 5 h
activity in the NADH oxidase / beef heart mitochondrial respiration assay [1]: very good activity
fungicidal activity on plants [2]: inactive as fungicides

COC(=O)CNC(=O)CCC/C=C\NC(=O)c1ccc(Cc2ccc(Br)cc2)cc1 [Compound 14]
photostability [3]: greater photostability than the natural product
T50 glass slides [3]: 12 h

CCOc1ccc(Cc2ccc(C(=O)N/C=C\CCCC(=O)NCC(=O)OC)cc2)cc1 [Compound 15]
photostability [3]: greater photostability than the natural product
T50 glass slides [3]: 20 h

CCc1ccc(Cc2ccc(Cn3c(=O)oc4ccc(OCC(=O)OC)cc43)cc2)cc1 [Compound 18]
activity on vine downy mildew on plants [6]: no activity

COC(=O)COc1ccc2oc(=O)n(Cc3ccc(Cc4ccc(I)cc4)cc3)c2c1 [Compound 19]
activity on vine downy mildew on plants [6]: no activity

CCc1ccc(Cc2ccc(Cn3c(=O)oc4ccc(NCC(=O)OC)cc43)cc2)cc1 [Compound 21]
IC50, NADH oxidase [1]: Inactive

CCc1ccc(Oc2ccc(C(=O)N[C@H]3C[C@H]3CCC(=O)NCC(=O)OC)cc2)cc1 [Compound 24]
activity in the NADH oxidase / beef heart mitochondrial respiration assay [1]: only very weakly active

COC(=O)CNC(=O)CCCc1ccccc1NC(=O)CCCCCCCCCc1ccccc1 [Compound 25]
activity in the NADH oxidase / beef heart mitochondrial respiration assay [1]: completely inactive
IC50, NADH oxidase [1]: Inactive
